In ChEMBL document CHEMBL6182911, “From Diarylsulfides to Diarylamines: New Ebola Virus Entry Inhibitors with Improved Metabolic Stability” (J Med Chem, 2025):
Activity calls are given as the source filed them. The calls are words filed in the database; no cut-off is given here.

Columns and labels:
[1] = Cytotoxicity against African green monkey Vero E6 cells assessed as reduction in cell viability incubated for 24 hrs by CellTiter-Glo Luminescent Cell Viability Assay; format: toxicity, cell-based, Vero C1008; conditions: chlorocebus sabaeus
[2] = system: Vesicular stomatitis virus; assay: Antiviral activity against VSV-G pseudotyped virus infected in African green monkey Vero E6 cells assessed as inhibition of viral infection at 10 uM preincubated with cells for 1 hr followed by viral infection and measured after 24 hrs by luciferase based luminometric analysis; format: functional, organism-based; conditions: time 25.0 hrs
[3] = Selectivity index, ratio of CC50 for cytotoxicity against African green monkey Vero E6 cells to EC50 for antiviral activity against replicative EBOV Mayinga variant infected in African green monkey Vero E6 cells; format: toxicity, cell-based; conditions: read-out: Ratio CC50/EC50
Ebolavirus [4] = assay: Antiviral activity against replicative EBOV Mayinga infected in African green monkey Vero E6 cells assessed as reduction in virus titer in cell culture supernatant incubated for 3 days by immunofocus assay; format: functional, organism-based
Ebolavirus [5] = assay: Antiviral activity against VSV-G pseudotyped EBOV-GP Mayinga infected in African green monkey Vero E6 cells assessed as inhibition of viral infection preincubated with cells for 1 hr followed by viral infection and measured after 24 hrs by luciferase based luminometric analysis; format: functional, organism-based; conditions: Orthoebolavirus, Vero C1008
[6] = Selectivity index, ratio of CC50 for cytotoxicity against African green monkey Vero E6 cells to EC50 for antiviral activity against VSV-G pseudotyped EBOV-GP Mayinga infected in African green monkey Vero E6 cells; format: toxicity, cell-based; conditions: read-out: Ratio CC50/EC50
Ebolavirus [7] = assay: Inhibition of cleaved EBOV-GP assessed as disruption of interaction between EBOV-GPcl and Flag-tagged human NPC1 domain C at 50 uM by ELISA
Ebolavirus [8] = assay: Binding affinity to EBOV-GP assessed as appearance of STD signals of aromatic region of compound at ligand to protein concentration molar ratio of 100:1 in presence of imipramine by STD-NMR analysis
Ebolavirus [9] = assay: Binding affinity to EBOV-GP assessed as appearance of STD signals of aromatic region of compound at ligand to protein concentration molar ratio of 100:1 by STD-NMR analysis

Row | Compound | CC50 at 24 h [1] [µM] | Activity [2] | further results
1 | CCN(CC)CC(=O)Nc1ccccc1Sc1cc(Cl)ccc1[N+](=O)[O-] | 250 | – | –
2 | O=C(CN1CCCCC1)Nc1ccccc1Sc1cc(Cl)ccc1[N+](=O)[O-] | 250 | – | –
3 | O=C(CCNCCc1ccccc1)Nc1ccccc1Sc1cc(Cl)ccc1[N+](=O)[O-] | 250 | – | –
4 | O=C(CNCCC1CCN(Cc2ccccc2)CC1)Nc1ccccc1Sc1cc(Cl)ccc1[N+](=O)[O-] | – | inactive | –
5 | NC(=O)c1nc(F)c[nH]c1=O | > 1000 | – | selectivity ratio [3]: 14.9
6 | O=C(CN1CCCC1)Nc1ccccc1Sc1cc(Cl)ccc1[N+](=O)[O-] | 250 | – | EC50 (Ebolavirus [4]): Not_active
7 | O=C(CCN1CCCC1)Nc1ccccc1Sc1cc(Cl)ccc1[N+](=O)[O-] | – | inactive | EC50 (Ebolavirus [4]): Not_active
8 | O=C(CCN1CCCC1)Nc1ccccc1Nc1cc(Cl)ccc1[N+](=O)[O-] | – | inactive | –
9 | O=C(CNCc1ccccc1)Nc1ccccc1Sc1cc(Cl)ccc1[N+](=O)[O-] | 250 | – | –
10 | O=C(CN1CCCC1)NNc1ccccc1Sc1cc(Cl)ccc1[N+](=O)[O-] | – | – | EC50 (Ebolavirus [5]): 2.9 µM
11 | O=C(CNCCC1CCN(Cc2ccccc2)CC1)Nc1ccccc1Nc1cc(Cl)ccc1[N+](=O)[O-] | – | inactive | selectivity ratio [6]: 4.1; inhibition (Ebolavirus [7]): Active; Activity (Ebolavirus [8]): inactive; Activity (Ebolavirus [9]): Active; selectivity ratio [3]: 2.3
12 | CCN(CC)CCC(=O)Nc1ccccc1Nc1cc(Cl)ccc1[N+](=O)[O-] | – | inactive | –
13 | CCN(CC)CC(=O)NNc1ccccc1Sc1cc(Cl)ccc1[N+](=O)[O-] | – | – | EC50 (Ebolavirus [5]): 4.02 µM
14 | CCN(CC)CCC(=O)Nc1ccccc1Sc1cc(Cl)ccc1[N+](=O)[O-] | – | inactive | –
